The text below walks through data of patent US9050285B2, “Recombinant bacterium capable of eliciting an immune response against Streptococcus pneumoniae” (The United States of America National Institutes of Health …, priority 2008, dated 2015).

What all share (type): cell-based
The subject of one experiment is χ9640(pYA4088). Briefly: Minimum inhibitory concentrations of antibiotics for RASV-Sp strain χ9640(pYA4088). The settings on record: Salmonella Typhi strain χ9640(pYA4088); for MIC: Salmonella enterica, read-out: Minimum inhibitory concentration. From the text:
(§1) Master seed and working seed banks of each vaccine organism in separate vials have been prepared for frozen storage in vegetable-based cryopreservative. […] Antibiotic sensitivity testing has confirmed that these strains are sensitive to ciprofloxacin, ampicillin, ceftriaxone, trimethoprim/sulfamethoxazole (Table 13). Ampicillin, ciprofloxacin, ceftriaxone and trimethoprim/sulfamethoxazole are typically tested for minimum inhibitory concentrations (MICs) for Salmonella.

In a further experiment the test system is χ9639(pYA4088). Nature of the experiment: Minimum inhibitory concentrations of antibiotics for RASV-Sp strain χ9639(pYA4088). The settings on record: Salmonella Typhi strain χ9639(pYA4088); for MIC: Salmonella enterica, read-out: Minimum inhibitory concentration.
Excerpt: as §1

Another experiment deals with χ9633(pYA4088). Nature of the experiment: Minimum inhibitory concentrations of antibiotics for RASV-Sp strain χ9633(pYA4088). Particulars: Salmonella Typhi strain χ9633(pYA4088).
Excerpt: as §1

A value given as a limit tells only on which side of the number the result lay.

Regarding `CC1(C)S[C@@H]2[C@H](NC(=O)[C@H](N)c3ccccc3)C(=O)N2[C@H]1C(=O)O` [ampicillin], the MIC in the experiment with χ9640(pYA4088) and in the experiment on χ9639(pYA4088) was below 2 µg/mL in each case.

Regarding `CO/N=C(\C(=O)N[C@@H]1C(=O)N2C(C(=O)O)=C(CSc3nc(=O)c(=O)[nH]n3C)CS[C@H]12)c1csc(N)n1` [ceftriaxone], the MIC in the experiment with χ9640(pYA4088) and in the experiment on χ9639(pYA4088) was below 1 µg/mL in each case.

In the case of `O=C(O)c1cn(C2CC2)c2cc(N3CCNCC3)c(F)cc2c1=O` [ciprofloxacin], the MIC with χ9640(pYA4088) and with χ9639(pYA4088) was below 0.25 µg/mL throughout.

For the compound trimethroprim-sulfamethoxazole, the Minimum inhibitory concentration with χ9633(pYA4088), in the experiment with χ9640(pYA4088) and with χ9639(pYA4088) was below 20 µg/mL each time.
